Reference: PMC4109017 (Nature Communications, 2014)

Key:
[1] = molecular target: FALDH Q445X (without gatekeeper helix) (Homo sapiens, UniProt P51648); assay: fluorometric NADH formation, Michaelis-Menten fit; assay type: biochemical; details: 1 mM NAD, 25 mM sodium pyrophosphate pH 8.0, 0.1% Triton X-100, 37 °C
FALDH (K463X) = FALDH (K463X) (Homo sapiens, UniProt P51648); assay: fluorometric NADH formation, Michaelis-Menten fit; assay type: biochemical; details: 1 mM NAD, 25 mM sodium pyrophosphate pH 8.0, 0.1% Triton X-100, 37 °C
Sequence of FALDH (K463X) (P51648 1-462): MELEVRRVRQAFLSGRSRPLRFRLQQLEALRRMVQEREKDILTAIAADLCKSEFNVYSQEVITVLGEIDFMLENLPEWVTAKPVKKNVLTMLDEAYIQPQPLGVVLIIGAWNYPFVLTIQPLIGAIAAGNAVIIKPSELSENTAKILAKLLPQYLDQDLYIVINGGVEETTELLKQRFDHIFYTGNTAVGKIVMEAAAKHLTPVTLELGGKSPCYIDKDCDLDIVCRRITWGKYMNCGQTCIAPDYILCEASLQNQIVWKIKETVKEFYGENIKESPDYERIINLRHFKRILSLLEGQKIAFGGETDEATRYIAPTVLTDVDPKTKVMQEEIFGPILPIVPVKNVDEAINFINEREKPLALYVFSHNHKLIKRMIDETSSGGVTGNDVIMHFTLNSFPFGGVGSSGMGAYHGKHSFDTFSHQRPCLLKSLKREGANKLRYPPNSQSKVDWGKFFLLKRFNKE

Sequence of FALDH Q445X (without gatekeeper helix) (P51648 1-444): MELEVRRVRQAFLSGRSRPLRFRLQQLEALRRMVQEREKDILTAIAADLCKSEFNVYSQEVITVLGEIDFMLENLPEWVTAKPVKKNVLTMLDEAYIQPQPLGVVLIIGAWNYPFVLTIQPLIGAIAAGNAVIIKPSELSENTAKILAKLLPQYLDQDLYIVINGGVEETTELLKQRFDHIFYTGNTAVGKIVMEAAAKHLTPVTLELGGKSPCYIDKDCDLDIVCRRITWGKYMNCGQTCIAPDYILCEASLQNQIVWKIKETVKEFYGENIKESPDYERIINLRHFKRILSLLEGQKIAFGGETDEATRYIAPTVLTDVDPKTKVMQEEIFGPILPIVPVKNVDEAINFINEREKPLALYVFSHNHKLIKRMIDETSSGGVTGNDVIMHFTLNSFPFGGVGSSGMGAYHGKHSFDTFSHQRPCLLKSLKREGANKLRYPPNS

SMILES | Vmax/KM [1] | Vmax/KM (FALDH (K463X))
CCCCCCCCCCCC=O [dodecanal] | longer fatty aldehydes docecanal (C12) and hexadecanal (C16) were used as substrates | metabolize octanal, dodecanal and hexadecanal
CCCCCCCCCCCCCCCC=O [hexadecanal] | – | metabolize octanal, dodecanal and hexadecanal
